From patent publication US20120053227A1, “miR-33 INHIBITORS AND USES THEREOF” (New York University, priority 2010, published 2012)

What was measured:
Huh7 cells [1] = experiment: mRNA and protein expression of miR-33 target genes in transfected Huh7 cells; assay type: cell-based; details: for CROT, CPT1a, HADHB, AMPKα, SIRT6, and IRS2 protein expression: to a similar extent for miR-33a and miR-33b
Method: Total RNA was isolated using TRIzol reagent (Invitrogen) according to the manufacturer's protocol. For mRNA quantification, cDNA was synthesized using Taqman RT reagents (Applied Biosystems), following the manufacturer's protocol. Quantitative real-time PCR was performed in triplicate using iQ SYBR green Supermix (BioRad) on iCycler Real-Time Detection System (BioRad). The mRNA level was normalized to GAPDH as a house keeping gene. The primers sequences used were: […]
(§1) HepG2 and Huh7 cells were transfected with 40 nM miRIDIAN miRNA mimics (miR-33) or 60 nM miRIDIAN miRNA inhibitors (anti-miR-33) (Dharmacon) using Oligofectamine (Invitrogen). All experimental control samples were treated with an equal concentration of a nontargeting control mimic sequence (CM) or an inhibitor negative control sequence (CI) to control for nonsequence-specific effects in miRNA experiments

[2] = test system: 3′ UTR of Crot, Cpt1a, Hadhb, Ampkα, and Irs2; experiment: 3′ UTR luciferase reporter assay, Crot, Cpt1a, Hadhb, Ampkα, Irs2; assay type: cell-based; details: only modest differences between miR-33a and miR-33b
From the text: (§2) cDNA fragments corresponding to the entire 3′ UTR of carnitine O-octaniltransferase (Crot), carnitine palmitoyltransferase 1A (Cpt1a), hydroxyacyl-CoAdehydrogenase (Hadhb), AMP kinase subunit-α (Ampkα), and insulin receptor substrate 2 (Irs2), citrate synthase (Cs), 3-hydroxy-3-methylglutaryl CoA (Hmgcr), and Sirtuin 6 (Sirt6) were amplified by RT-PCR from total RNA extracted from HepG2 cells with XhoI and NotI linkers. The PCR products were directionally cloned downstream of the Renilla luciferase ORF of the ψCHECK2 vector (Promega) that also contains a constitutively expressed firefly luciferase gene, which is used to normalize transfections. Point mutations in the seed region of predicted miR-33 sites within the 3′ UTR of Crot, Cpt1a, Hadhb, Ampkα, and Sirt6 were generated using Multisite-Quickchange (Stratagene) according to the manufacturer's protocol. All constructs were confirmed by sequencing. COS-7 cells were plated into 12-well plates (Costar) and cotransfected with 1 μg indicated 3′ UTR luciferase reporter vectors and the miR-33 mimic or negative control mimic (CM) (Dharmacon) using Lipofectamine 2000 (Invitrogen). Luciferase activity was measured using the Dual-Glo Luciferase Assay System (Promega). […]

Huh7 cells [3] = experiment: Fatty acid β-oxidation assay ([14C]-oleate); assay type: cell-based
Method: HepG2 and Huh7 cells were transfected with miR-33 (20 nM), anti-miR-33 (40 nM), or negative control (con-miR and con-inh, respectively), and the rate of fatty acid oxidation was determined. Cells were cultured in the presence of [^14C]-oleate (Perkin-Elmer)-BSA complex, and the released [^14C]-carbon dioxide was trapped for 1 h at 37° C. onto filter paper soaked in 100 mM sodium hydroxide. The rate of β-oxidation was calculated as the amount of trapped [^14C]-carbon dioxide in relative units produced per milligram of protein per hour. Experiments were performed in triplicate in p60 plates and were repeated at least three times.

Huh7 cells [4] = experiment: AKT and ERK phosphorylation after insulin stimulation; assay type: cell-based
Method: Cell were lysed in ice-cold buffer containing 50 mM Tris-HCl, pH 7.5, 125 mM NaCl, 1% NP-40, 5.3 mM NaF, 1.5 mM NaP and 1 mM orthovanadate, 175 mg/ml octylglucopyranoside and 1 mg/ml of protease inhibitor cocktail (Roche) and 0.25 mg/ml AEBSF (Roche). Cell lysates were rotated at 4° C. for 1 h before the insoluble material were removed by centrifugation at 12000×g for 10 min. After normalizing for equal protein concentration, cell lysates were resuspended in SDS sample buffer before separation by SDS-PAGE. Following overnight transfer of the proteins onto nitrocellulose membranes. The membranes were probed with the indicated antibodies, and protein bands were visualized using the Odyssey Infrared Imaging System (LI-COR Biotechnology). Densitometry analysis of the gels was carried out using ImageJ software from the NIH (http://rsbweb.nih.gov/ij/).
as §1

Huh7 cells [5] = experiment: 2-Deoxyglucose uptake; assay type: cell-based
Method: Huh7 cells were transfected with miR-33b (20 nM) or negative control (Con-miR) for 48 h. Then, cells were cultured in serum-free media for 24 h, washed two times, and placed into warmed buffer for 2 h before glucose uptake studies. Insulin (100 nM) was added for 10 min. After this, […] 2-deoxyglucose (2-DOG) was added to each well (Perkin-Elmer). After 5 min, 5% unlabeled glucose was added to stop the reaction. Cells were then washed two times in 5% glucose and lysed by the addition of 0.5% SDS; 3 mL Ultima Gold scintillant (Packard) were added, samples were vortexed, and radioactivity was counted.

Sirt6 3′ UTR = experiment: 3′ UTR luciferase reporter assay, Sirt6; assay type: cell-based, human
From the text: as §2

Huh7 cells [6] = experiment: Triglyceride content and synthesis in Huh7 cells incubated with oleate and starved; assay type: cell-based; details: oleate 24 h then starved 24 h
Method: The accumulation of neutral lipids and lipid droplet formation was next evaluated tin Huh7 cells incubated with oleate for 24 h and then starved for the next 24 h. […] The increase in triglyceride content was independent of changes in triglyceride synthesis rates.

Row | Substance | CROT, CPT1a, HADHB, AMPKα, SIRT6, and IRS2 protein expression (Huh7 cells [1]) | 3′ UTR activity of Crot, Cpt1a, Hadhb, Ampkα, and Irs2 [2] | SIRT6 mRNA and protein levels (Huh7 cells [1]) | miR-33b expression after transfection, increase (Huh7 cells [1]) [fold] | mRNA levels of CROT, CPT1a, HADHB, AMPKα, and IRS2 (Huh7 cells [1]; anti-miR-33b: CROT, CPT1a, AMPKα, IRS2) | miR-33b expression, fold increase (Huh7 cells [3]) [fold] | rate of fatty acid β-oxidation (Huh7 cells [3]) | AKT and ERK phosphorylation (Huh7 cells [4]) | insulin-induced 2-deoxyglucose (2-DOG) uptake (Huh7 cells [5]) | 3′ UTR activity of Sirt6 (Sirt6 3′ UTR) | triglycerides (TAG) accumulation (Huh7 cells [6])
1 | miR-33a: miR-33a transfected into Huh7 cells; human miR-33a sequence GUGCAUUGUAGUUGCAUUGCA (SEQ ID NO:32) (listed as RNA, chemistry not given here; listed as Homo sapiens) | inhibited | significantly inhibited |  |  |  |  |  |  |  |  | 
2 | miR-33b: miR-33b transfected into Huh7 cells; human miR-33b sequence GUGCAUUGCUGUUGCAUUGC (SEQ ID NO:34) (listed as RNA, chemistry not given here; listed as Homo sapiens) | inhibited | significantly inhibited | significantly inhibited | 32 | significantly inhibited | 27 | markedly reduced | reduced | reduced | markedly repressed | accumulated more triglycerides
